The results in this text go back to ChEMBL document CHEMBL3046293, “Fungicidal Activities of -Methoxyphenylacetic Acid Derivatives” (2002).

What all share (format): functional
For experiment [1], the system named is Podosphaera fuliginea. Briefly: Fungicidal activity against Podosphaera fuliginea assessed as cucumber powdery mildew control at 7.8 ppm foliar application 24 hr after inoculation by curative manner.
In experiment [2] the test system is Podosphaera fuliginea. Briefly: Fungicidal activity against Podosphaera fuliginea assessed as cucumber powdery mildew control at 0.125 ppm foliar application 24 hr before inoculation by preventive manner.
The test system of experiment [3] is Podosphaera fuliginea. Briefly: Fungicidal activity against Podosphaera fuliginea assessed as cucumber powdery mildew control at 0.125 ppm foliar application 24 hr after inoculation by curative manner.
In experiment [4] the test system is Podosphaera fuliginea. The experiment in a line: Fungicidal activity against Podosphaera fuliginea assessed as cucumber powdery mildew control at 2 ppm foliar application 24 hr after inoculation by curative manner.
For experiment [5], the system named is Podosphaera fuliginea. The experiment in a line: Fungicidal activity against Podosphaera fuliginea assessed as cucumber powdery mildew control at 0.5 ppm foliar application 24 hr after inoculation by curative manner.
For experiment [6], the system named is Podosphaera fuliginea. The experiment in a line: Fungicidal activity against Podosphaera fuliginea assessed as cucumber powdery mildew control at 0.5 ppm foliar application 24 hr before inoculation by preventive manner.
Experiment [7] has as its system Podosphaera fuliginea. Briefly: Fungicidal activity against Podosphaera fuliginea assessed as cucumber powdery mildew control at 2 ppm foliar application 24 hr before inoculation by preventive manner.
Experiment [8] deals with Podosphaera fuliginea. The experiment in a line: Fungicidal activity against Podosphaera fuliginea assessed as cucumber powdery mildew control at 7.8 ppm foliar application 24 hr before inoculation by preventive manner.
Experiment [9] concerns Botrytis cinerea. Briefly: Fungicidal activity against Botryotinia fuckeliana assessed as cucumber gray mold disease control at 7.8 ppm treated 24 hr before inoculation by preventive manner.
In experiment [10] the test system is Podosphaera fuliginea. Briefly: Fungicidal activity against Podosphaera fuliginea assessed as cucumber powdery mildew disease control at 7.8 ppm treated 24 hr before inoculation by preventive manner.
Experiment [11] concerns Pyricularia oryzae. The experiment in a line: Fungicidal activity against Magnaporthe oryzae Cav. race 003 assessed as rice blast disease control at 31.3 ppm treated 24 hr before inoculation by preventive manner.
For experiment [12], the system named is Pyricularia oryzae. Briefly: Fungicidal activity against Magnaporthe oryzae Cav. race 003 assessed as rice blast disease control at 31.3 ppm foliar application for 24 hr before inoculation by preventive manner.
For experiment [13], the system named is Pyricularia oryzae. Briefly: Fungicidal activity against Magnaporthe oryzae Cav. race 003 assessed as rice blast disease control at 7.8 ppm foliar application for 24 hr before inoculation by preventive manner.
The subject of experiment [14] is Pyricularia oryzae. The experiment in a line: Fungicidal activity against Magnaporthe oryzae Cav. race 003 assessed as rice blast disease control at 125 ppm foliar application for 24 hr before inoculation by preventive manner.
For experiment [15], the system named is Pyricularia oryzae. The experiment in a line: Fungicidal activity against Magnaporthe oryzae Cav. race 003 assessed as rice blast disease control at 2 ppm foliar application for 24 hr before inoculation by preventive manner.
In experiment [16] the test system is Thanatephorus cucumeris. The experiment in a line: Fungicidal activity against Thanatephorus cucumeris assessed as rice sheath blight disease control at 2 ppm foliar application for 24 hr before inoculation by preventive manner.
Experiment [17] has as its system Thanatephorus cucumeris. Briefly: Fungicidal activity against Thanatephorus cucumeris assessed as rice sheath blight disease control at 125 ppm foliar application for 24 hr after inoculation by curative manner.
Experiment [18] relates to Thanatephorus cucumeris. Briefly: Fungicidal activity against Thanatephorus cucumeris assessed as rice sheath blight disease control at 7.8 ppm foliar application for 24 hr after inoculation by curative manner.
For experiment [19], the system named is Thanatephorus cucumeris. Briefly: Fungicidal activity against Thanatephorus cucumeris assessed as rice sheath blight disease control at 7.8 ppm foliar application for 24 hr before inoculation by preventive manner.
The test system of experiment [20] is Thanatephorus cucumeris. The experiment in a line: Fungicidal activity against Thanatephorus cucumeris assessed as rice sheath blight disease control at 31.3 ppm foliar application for 24 hr after inoculation by curative manner.
For experiment [21], the system named is Thanatephorus cucumeris. The experiment in a line: Fungicidal activity against Thanatephorus cucumeris assessed as rice sheath blight disease control at 2 ppm foliar application for 24 hr after inoculation by curative manner.
Experiment [22] has as its system Thanatephorus cucumeris. Briefly: Fungicidal activity against Thanatephorus cucumeris assessed as rice sheath blight disease control at 31.3 ppm foliar application for 24 hr before inoculation by preventive manner.
In experiment [23] the test system is Thanatephorus cucumeris. The experiment in a line: Fungicidal activity against Thanatephorus cucumeris assessed as rice sheath blight disease control at 125 ppm foliar application for 24 hr before inoculation by preventive manner.
Experiment [24] has as its system Pseudoperonospora cubensis. Briefly: Fungicidal activity against Pseudoperonospora cubensis assessed as cucumber downy mildew disease control at 7.8 ppm foliar application 24 hr before inoculation onto the adaxial(treated) surface of leaf by preventive manner.
Experiment [25] relates to Botrytis cinerea. Briefly: Fungicidal activity against Botryotinia fuckeliana assessed as cucumber gray mold disease control at 7.8 ppm foliar application 24 hr before inoculation by preventive manner.
Experiment [26] has as its system Pseudoperonospora cubensis. The experiment in a line: Fungicidal activity against Pseudoperonospora cubensis assessed as cucumber downy mildew disease control at 125 ppm foliar application 24 hr before inoculation onto the abaxial(treated) surface of leaf by preventive manner.
Experiment [27] has as its system Blumeria graminis. Briefly: Fungicidal activity against Blumeria graminis f. sp. tritici assessed as wheat powdery mildew disease control at 31.3 ppm foliar application for 24 hr before inoculation by preventive manner.
The subject of experiment [28] is Blumeria graminis. Briefly: Fungicidal activity against Blumeria graminis f. sp. tritici assessed as wheat powdery mildew disease control at 2 ppm foliar application for 24 hr before inoculation by preventive manner.
Experiment [29] concerns Blumeria graminis. Briefly: Fungicidal activity against Blumeria graminis f. sp. tritici assessed as wheat powdery mildew disease control at 7.8 ppm foliar application for 24 hr after inoculation by curative manner.
Experiment [30] relates to Pseudoperonospora cubensis. The experiment in a line: Fungicidal activity against Pseudoperonospora cubensis assessed as cucumber downy mildew disease control at 31.3 ppm foliar application 24 hr after inoculation by curative manner.
Experiment [31] has as its system Blumeria graminis. Briefly: Fungicidal activity against Blumeria graminis f. sp. tritici assessed as wheat powdery mildew disease control at 7.8 ppm foliar application for 24 hr before inoculation by preventive manner.
Experiment [32] has as its system Pseudoperonospora cubensis. Briefly: Fungicidal activity against Pseudoperonospora cubensis assessed as cucumber downy mildew disease control at 31.3 ppm foliar application 24 hr before inoculation onto the abaxial(treated) surface of leaf by preventive manner.
Experiment [33] relates to Botrytis cinerea. The experiment in a line: Fungicidal activity against Botryotinia fuckeliana assessed as cucumber gray mold disease control at 125 ppm foliar application 24 hr before inoculation by preventive manner.
For experiment [34], the system named is Botrytis cinerea. The experiment in a line: Fungicidal activity against Botryotinia fuckeliana assessed as cucumber gray mold disease control at 31.3 ppm foliar application 24 hr before inoculation by preventive manner.
Experiment [35] concerns Botrytis cinerea. The experiment in a line: Fungicidal activity against Botryotinia fuckeliana assessed as cucumber gray mold disease control at 125 ppm foliar application 24 hr after inoculation by curative manner.
For experiment [36], the system named is Pseudoperonospora cubensis. Briefly: Fungicidal activity against Pseudoperonospora cubensis assessed as cucumber downy mildew disease control at 125 ppm foliar application 24 hr before inoculation onto the adaxial(treated) surface of leaf by preventive manner.
Experiment [37] relates to Pseudoperonospora cubensis. Briefly: Fungicidal activity against Pseudoperonospora cubensis assessed as cucumber downy mildew disease control at 7.8 ppm foliar application 24 hr before inoculation onto the abaxial(treated) surface of leaf by preventive manner.
Experiment [38] concerns Pseudoperonospora cubensis. The experiment in a line: Fungicidal activity against Pseudoperonospora cubensis assessed as cucumber downy mildew disease control at 2 ppm foliar application 24 hr before inoculation onto the abaxial(treated) surface of leaf by preventive manner.
Experiment [39] has as its system Pseudoperonospora cubensis. The experiment in a line: Fungicidal activity against Pseudoperonospora cubensis assessed as cucumber downy mildew disease control at 125 ppm foliar application 24 hr after inoculation by curative manner.
Experiment [40] concerns Botrytis cinerea. Briefly: Fungicidal activity against Botryotinia fuckeliana assessed as cucumber gray mold disease control at 31.3 ppm foliar application 24 hr after inoculation by curative manner.
Experiment [41] concerns Pseudoperonospora cubensis. The experiment in a line: Fungicidal activity against Pseudoperonospora cubensis assessed as cucumber downy mildew disease control at 7.8 ppm foliar application 24 hr after inoculation by curative manner.
For experiment [42], the system named is Blumeria graminis. The experiment in a line: Fungicidal activity against Blumeria graminis f. sp. tritici assessed as wheat powdery mildew disease control at 125 ppm foliar application for 24 hr before inoculation by preventive manner.
Experiment [43] has as its system Pseudoperonospora cubensis. The experiment in a line: Fungicidal activity against Pseudoperonospora cubensis assessed as cucumber downy mildew disease control at 2 ppm foliar application 24 hr before inoculation onto the adaxial(treated) surface of leaf by preventive manner.
Experiment [44] has as its system Botrytis cinerea. Briefly: Fungicidal activity against Botryotinia fuckeliana assessed as cucumber gray mold disease control at 2 ppm foliar application 24 hr after inoculation by curative manner.
Experiment [45] relates to Pseudoperonospora cubensis. Briefly: Fungicidal activity against Pseudoperonospora cubensis assessed as cucumber downy mildew disease control at 31.3 ppm foliar application 24 hr before inoculation onto the adaxial(treated) surface of leaf by preventive manner.
Experiment [46] has as its system Botrytis cinerea. Briefly: Fungicidal activity against Botryotinia fuckeliana assessed as cucumber gray mold disease control at 7.8 ppm foliar application 24 hr after inoculation by curative manner.
The subject of experiment [47] is Botrytis cinerea. The experiment in a line: Fungicidal activity against Botryotinia fuckeliana assessed as cucumber gray mold disease control at 2 ppm foliar application 24 hr before inoculation by preventive manner.
Experiment [48] has as its system Blumeria graminis. Briefly: Fungicidal activity against Blumeria graminis f. sp. tritici assessed as wheat powdery mildew disease control at 125 ppm foliar application for 24 hr after inoculation by curative manner.
Experiment [49] relates to Blumeria graminis. The experiment in a line: Fungicidal activity against Blumeria graminis f. sp. tritici assessed as wheat powdery mildew disease control at 2 ppm foliar application for 24 hr after inoculation by curative manner.
In experiment [50] the test system is Pseudoperonospora cubensis. Briefly: Fungicidal activity against Pseudoperonospora cubensis assessed as cucumber downy mildew disease control at 2 ppm foliar application 24 hr after inoculation by curative manner.
In experiment [51] the test system is Blumeria graminis. Briefly: Fungicidal activity against Blumeria graminis f. sp. tritici assessed as wheat powdery mildew disease control at 31.3 ppm foliar application for 24 hr after inoculation by curative manner.

Consider `OC(c1ccc(Cl)cc1)(c1cncnc1)c1ccccc1Cl` (configuration not stated) [FENARIMOL], for which the Activity in experiment [1] was determined as 100%; in experiment [2], 0%; in experiment [3], 80%; in experiment [4] it was 99%; in experiment [5] it was 99%; in experiment [6] it was 80%. For the same molecule, the Activity in experiment [7] is reported as 95%; in experiment [8] it was 100%.

On to `CNC(=O)C(OC)c1cccc(COc2ccc(C)cc2C)c1` (configuration not stated), for which the Activity in experiment [9] is on record as 50%; in experiment [10] it was 90%; in [11], 90%.

As for `C/C(=N/Nc1nc(C)cc(C)n1)c1ccccc1C` [FERIMZONE], the Activity in [12] is 90%; in [13], 50%; in experiment [14] it was 97%; in experiment [15], 30%.

Consider `CC(C)Oc1cccc(NC(=O)c2ccccc2C(F)(F)F)c1` [FLUTOLANIL], for which the Activity in [16] is given as 20%; in experiment [17] it was 80%; in experiment [18], 70%; in experiment [19] it was 70%; in experiment [20], 80%; in experiment [21] it was 40%. The figures for the Activity in experiment [22] and in experiment [23] were 80% and 90%, respectively.

In the case of `CO/N=C(/C(=O)OC)c1ccccc1COc1ccccc1C` [KRESOXIM-METHYL], the Activity in [24] stood at 97%; in [16] it was 30%; in [25], 50%; in [26], 30%; in experiment [27], 70%; in experiment [17], 50%. Moreover, the Activity amounted to 0% in experiment [18]; 30% in [28]; 70% in experiment [12]; 70% in experiment [29]; 0% in experiment [30]; 100% in experiment [1]. For the same molecule, the Activity in experiment [31] is 50%; in experiment [32], 0%; in experiment [33], 50%; in experiment [19] it was 30%; in experiment [34] it was 50%; in experiment [13], 50%. In addition, the Activity in experiment [35] is on record as 30%; in experiment [36], 97%; in experiment [20], 30%; in [2], 0%; in [37], 0%; in experiment [38], 0%. The Activity is on record as 97% in experiment [14]; 50% in experiment [3]; 30% in experiment [39]; 10% in experiment [40]; 0% in [41]; 90% in experiment [4]. Moreover, the Activity in [42] is listed as 90%; in experiment [15], 30%; in [43] it was 97%; in experiment [44] it was 0%; in experiment [45] it was 97%; in experiment [5] it was 80%. Besides, the Activity in [46] is 0%; in experiment [47] it was 20%; in [21] it was 0%; in experiment [48], 90%; in experiment [6], 20%; in [7], 80%. The Activity turned out to be 50% in [49]; 0% in experiment [50]; 97% in experiment [8]; 30% in experiment [22]; 50% in experiment [23]; 90% in [51].

With `CNC(=O)C(OC)c1cccc(COc2cc(C)cc(C)c2C)c1` (configuration not stated), the Activity came to 50% in experiment [9], 90% in experiment [10] and 90% in experiment [11].

Consider `CC(C)NC(=O)N1CC(=O)N(c2cc(Cl)cc(Cl)c2)C1=O` [IPRODIONE], for which the Activity in [25] is given as 50%; in experiment [33], 100%; in experiment [34], 100%; in [35] it was 80%; in [40], 70%; in [44], 20%. Also, the Activity in experiment [46] is listed as 60%; in experiment [47], 20%.
